Test results taken from patent US4616086A, “Piperazine-substituted aryl and aralkyl carboxylic acids useful for treating infirmaties caused by excess lipids or thrombocyte” (Boehringer Mannheim GmbH, priority 1981, dated 1986).
Where two headings read alike, the source gives them in different places.

Experiments:
[1] = system: cholesterol and triglyceride levels in the serum; experiment: Lowering of Lipid Levels (cholesterol and triglyceride levels in the serum of male rats of normal metabolism, 7 days); assay type: in vivo; conditions: 100 mg/kg/d for 7 days in methyl cellulose suspension, serum 3 hours after last dose, in comparison to control; for inhibition in vivo at 100 mg/kg/day: Rattus norvegicus, po
Method: In each case, 10 male rats of normal metabolism were administered the test substance for 7 days in a dosage of 100 mg/kg/d in methyl cellulose suspension. At the end of the experiment, 3 hours after the last does was administered, the cholesterol and triglyceride levels in the serum were determined. The changes are given in Table I expressed as a percentage in comparison to control for a representative selection of compounds.

thrombocyte aggregation = experiment: Inhibition of Aggregation (Born test, adrenalin-induced thrombocyte aggregation, platelet-rich plasma); assay type: cell-based, human; conditions: for % of inhibition of thrombocyte aggregation: human PRP, adrenalin 5×10^-6 mol/l, 2nd phase, test concentration 14^-4 mol/l [sic]
Method: Venous blood from subjects of normal metabolism is mixed with sodium citrate (9:1). The erythrocytes are settled by centrifugation at 150 g. The thrombocytes are concentrated in the supernatant. This supernatant is referred to as platelet-rich plasma (PRP). An aliquot of the PRP is placed in the cell of an aggregometer (Universal Aggregometer mfd. by Braun Melsungen) and there stirred by means of a small magnet. The substance to be tested is added in an aqueous solution (pH approx. 7). Changes in the light transmission in the suspension are continuously registered by a recorder. After spontaneous aggregation ends, aggregation is triggered by the addition of adrenalin (end concentration 5×10^-6 mol/l). Larger clumps of thrombocytes form and this causes the transmission of light through the suspension to increase.
The adrenalin-induced aggregation takes place in two phases, i.e., the light transmission first increases, then briefly remains steady, and then again increases. Only the second phase of the aggregation can be influenced by aggregation inhibitors.
With the same PRP, aggregation is induced with adrenalin after addition of the test substance and the course of the aggregation is registered with the recorder. The angle of the 2nd phase from the horizontal is again determined and the ratio of the two angles gives the percentage of inhibition of the 2nd phase of the thrombocyte aggregation.
All substances were tested in a concentration of 14^-4 mol/l in determining their aggregation inhibiting action.

[2] = read-out: % of reduction of cholesterol
[3] = read-out: % of reduction of triglycerides
[4] = Homo sapiens, read-out: inhibition of the 2nd phase of thrombocyte aggregation (standard)

SMILES | inhibition in vivo at 100 mg/kg/day [1, 2] | inhibition in vivo at 100 mg/kg/day [1, 3] | further results
O=C(O)c1ccc(N2CCN(CCCc3ccccc3)CC2)cc1 [13 i] | 38% | 15% | –
O=C(O)c1ccc(CCN2CCN(Cc3ccc(Cl)cc3)CC2)cc1 [33 b] | 40% | 30% | % of inhibition of thrombocyte aggregation (thrombocyte aggregation): 19%
O=C(O)c1ccc(CCN2CCN(CCOc3ccccc3)CC2)cc1 [33 c] | 13% | 11% | % of inhibition of thrombocyte aggregation (thrombocyte aggregation): 40%
CC(CN1CCN(CCc2ccc(C(=O)O)cc2)CC1)Oc1ccccc1 (centres unmarked) [33 d] | – | – | % of inhibition of thrombocyte aggregation (thrombocyte aggregation): 6%; % of reduction of cholesterol [1]: 43%; % of reduction of triglycerides [1]: 41%
COc1ccc(OC(C)CN2CCN(CCc3ccc(C(=O)O)cc3)CC2)cc1 (centres unmarked) [33 f] | – | – | % of reduction of cholesterol [1]: 37%; % of reduction of triglycerides [1]: 42%
O=C(O)c1ccc(CCN2CCN(C(=O)c3ccc(Cl)cc3)CC2)cc1 [33 i] | – | – | % of reduction of cholesterol [1]: 41%; % of reduction of triglycerides [1]: 24%
CC(C)(C)c1cc(CCC(=O)N2CCN(CCc3ccc(C(=O)O)cc3)CC2)cc(C(C)(C)C)c1O [33 l] | – | – | % of reduction of cholesterol [1]: 38%; % of reduction of triglycerides [1]: 22%
CS(=O)(=O)N1CCN(CCc2ccc(C(=O)O)cc2)CC1 [33 m] | 20% | 30% | –
O=C(O)c1ccc(CCN2CCN(S(=O)(=O)c3ccc(Cl)cc3)CC2)cc1 [33 o] | 35% | 13% | –
O=C(O)c1ccc(CCN2CCN(c3ccc(Oc4ccccc4)cc3)CC2)cc1 [33 r] | 33% | 15% | –
CC(Cc1ccc(Cl)cc1)CN1CCN(CCc2ccc(C(=O)O)cc2)CC1 (centres unmarked) [33 u] | 28% | 32% | –
O=C(O)c1ccc(CCN2CCN(CC=Cc3ccc(Cl)cc3)CC2)cc1 [34 c] | 30% | 40% | % of inhibition of thrombocyte aggregation (thrombocyte aggregation): 7%
O=C(O)c1ccc(CCN2CCN(Cc3ccccc3Cl)CC2)cc1 [34 i] | – | – | % of inhibition of thrombocyte aggregation (thrombocyte aggregation): 100%; % of reduction of cholesterol [1]: 21%; % of reduction of triglycerides [1]: 10%
CC(CN1CCN(CCc2ccc(C(=O)O)cc2)CC1)Oc1ccc([N+](=O)[O-])cc1 (centres unmarked) [34 s] | 47% | 21% | –
O=C(O)Cc1ccc(CCN2CCN(S(=O)(=O)c3ccc(Cl)cc3)CC2)cc1 [49 e] | 41% | 8% | –
CC(C)(C)c1cc(C=CC(=O)N2CCN(CCc3ccc(CC(=O)O)cc3)CC2)cc(C(C)(C)C)c1O [50 f] | 40% | 16% | –
O=C(O)Cc1ccc(CCN2CCN(S(=O)(=O)c3ccccc3)CC2)cc1 [50 g] | 28% | 9% | –
CC(C)(C)c1cc(CCN2CCN(c3ccc(CC(=O)O)cc3)CC2)cc(C(C)(C)C)c1O [50 j] | 40% | 0% | –
O=C(O)Cc1ccc(N2CCN(S(=O)(=O)c3ccccc3)CC2)cc1 [50 o] | 26% | 14% | –
CCOC(=O)c1ccc(CCCN2CCN(C(=O)c3ccc(Cl)cc3)CC2)cc1 [55 b] | 33% | 3% | –
CC(CN1CCN(c2ccc(C=CC(=O)O)cc2)CC1)Oc1ccccc1 (centres unmarked) [65 d1] | 5% | 20% | –
CC(=Cc1ccc(CCN2CCN(C(=O)c3ccc(Cl)cc3)CC2)cc1)C(=O)O [67 d1] | 37% | 9% | –
CCOC(=O)c1ccc(N2CCNCC2)cc1 [Example 1, Ethyl 4-(piperazin-1-yl)-benzoate] | – | – | hygroscopicity (hydrochloride): hydroscopic
O=C(O)c1ccc(CCN2CCN(CC=Cc3ccc([N+](=O)[O-])cc3)CC2)cc1 [Example 34o, 4-{2-[1-(4-nitrocinnamyl)-piperazin-4-yl]-ethyl}-benzoic acid] | – | – | light sensitivity: Light sensitive
CCCCOC(=O)CCc1ccc(N2CCN(C(=O)C=Cc3ccc(Cl)cc3)CC2)cc1 [Example 55, n-Butyl 3-{4-[1-(4-chlorocinnamoyl)-piperazin-4-yl]-phenyl}-propionate] | – | – | light sensitivity: light-sensitive
CCCCCCCCCCCCCCCCN1CCN(c2ccc(CCC(=O)O)cc2)CC1 [Example 58, 3-[4-(1-n-Hexadecylpiperazin-4-yl)-phenyl]-propionic acid] | 17% | 6% | –
CC(=O)Oc1ccccc1C(=O)O [acetylsalicylic acid, reference compound] | – | – | inhibition at 50 µM (thrombocyte aggregation; [4]): 0%; inhibition at 100 µM (thrombocyte aggregation; [4]): 100%
